Tested on: 945468-187-T-J2-PDC spheroids viability
Assay: Anticancer human tumor 945468-187-T-J2-PDC patient-derived rectal carcinoma cell line growth inhibition [PI3K]
Details: spheroids with HUVEC and MSC; for IC50: curve of first compound; for viability, T/C: stronger effect = lower value; active means viability on the fitted dose curve at most 10% of control; inactive means the rest
Method in brief: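 Stroma-containing spheroids: tumor line, pooled-donor HUVEC, hMSC. Treatments: targeted agents with PI3K inhibitors. Dosing: clinically relevant, half-log spacing, 10 microM ceiling without known Cmax. Read-out: cell viability.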

[1] = second compound 0.0316 µM, first compound 0.0316 µM
[2] = second compound 0.0316 µM, first compound 0.1 µM
[3] = second compound 0.0316 µM, first compound 0.316 µM
[4] = second compound 0.0316 µM, first compound 1 µM
[5] = second compound 0.0316 µM, first compound 3.16 µM
[6] = second compound 0.0316 µM, first compound 10 µM
[7] = second compound 0.1 µM, first compound 0.0316 µM
[8] = second compound 0.1 µM, first compound 0.1 µM
[9] = second compound 0.1 µM, first compound 0.316 µM
[10] = second compound 0.1 µM, first compound 1 µM
[11] = second compound 0.1 µM, first compound 3.16 µM
[12] = second compound 0.1 µM, first compound 10 µM
[13] = second compound 0.316 µM, first compound 0.0316 µM
[14] = second compound 0.316 µM, first compound 0.1 µM
[15] = second compound 0.316 µM, first compound 0.316 µM
[16] = second compound 0.316 µM, first compound 1 µM
[17] = second compound 0.316 µM, first compound 3.16 µM
[18] = second compound 0.316 µM, first compound 10 µM
[19] = second compound 1 µM, first compound 0.0316 µM
[20] = second compound 1 µM, first compound 0.1 µM
[21] = second compound 1 µM, first compound 0.316 µM
[22] = second compound 1 µM, first compound 1 µM
[23] = second compound 1 µM, first compound 3.16 µM
[24] = second compound 1 µM, first compound 10 µM
[25] = second compound 3.16 µM, first compound 0.0316 µM
[26] = second compound 3.16 µM, first compound 0.1 µM
[27] = second compound 3.16 µM, first compound 0.316 µM
[28] = second compound 3.16 µM, first compound 1 µM
[29] = second compound 3.16 µM, first compound 3.16 µM
[30] = second compound 3.16 µM, first compound 10 µM
[31] = second compound 10 µM, first compound 0.0316 µM
[32] = second compound 10 µM, first compound 0.1 µM
[33] = second compound 10 µM, first compound 0.316 µM
[34] = second compound 10 µM, first compound 1 µM
[35] = second compound 10 µM, first compound 3.16 µM
[36] = second compound 10 µM, first compound 10 µM
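Further: spheroids exposed to compounds for seven days before reading.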

C#Cc1c(F)ccc2cc(O)cc(-c3ncc4c(N5CC6CCC(C5)N6)nc(OCC56CCCN5CC(F)C6)nc4c3F)c12 (stereo not given) + CC(Nc1ncnc2nc[nH]c12)c1cc2cccc(Cl)c2c(=O)n1-c1ccccc1
inactive: viability, T/C [1] 101% | viability, T/C [2] 99.8% | viability, T/C [3] 95.8% | viability, T/C [4] 86.4% | viability, T/C [5] 102% | viability, T/C [6] 117% | viability, T/C [7] 111% | viability, T/C [8] 110% | viability, T/C [9] 103% | viability, T/C [10] 134% | viability, T/C [11] 107% | viability, T/C [12] 106% | viability, T/C [13] 100% | viability, T/C [14] 116% | viability, T/C [15] 87.1% | viability, T/C [16] 95.3% | viability, T/C [17] 116% | viability, T/C [18] 111% | viability, T/C [19] 96.3% | viability, T/C [20] 104% | viability, T/C [21] 113% | viability, T/C [22] 106% | viability, T/C [23] 96.2% | viability, T/C [24] 114% | viability, T/C [25] 91% | viability, T/C [26] 98.6% | viability, T/C [27] 107% | viability, T/C [28] 125% | viability, T/C [29] 114% | viability, T/C [30] 105% | viability, T/C [31] 114% | viability, T/C [32] 140% | viability, T/C [33] 149% | viability, T/C [34] 99.7% | viability, T/C [35] 116% | viability, T/C [36] 112%
> 10 µM: IC50 (second compound 0.0316 µM) | IC50 (second compound 0.1 µM) | IC50 (second compound 0.316 µM) | IC50 (second compound 1 µM) | IC50 (second compound 3.16 µM) | IC50 (second compound 10 µM)

C=CC(=O)N1CCN(c2nc(=O)n(-c3c(C)ccnc3C(C)C)c3nc(-c4c(O)cccc4F)c(F)cc23)C(C)C1 (stereo not given) + CC(Nc1ncnc2nc[nH]c12)c1cc2cccc(Cl)c2c(=O)n1-c1ccccc1
> 10 µM: IC50 (second compound 0.0316 µM) | IC50 (second compound 0.1 µM) | IC50 (second compound 0.316 µM) | IC50 (second compound 1 µM) | IC50 (second compound 3.16 µM) | IC50 (second compound 10 µM)
inactive: viability, T/C [1] 103% | viability, T/C [2] 124% | viability, T/C [3] 100% | viability, T/C [4] 114% | viability, T/C [5] 111% | viability, T/C [6] 95.8% | viability, T/C [7] 97.5% | viability, T/C [8] 82.7% | viability, T/C [9] 91.5% | viability, T/C [10] 85.2% | viability, T/C [11] 93% | viability, T/C [12] 136% | viability, T/C [13] 109% | viability, T/C [14] 114% | viability, T/C [15] 96.3% | viability, T/C [16] 105% | viability, T/C [17] 106% | viability, T/C [18] 84.7% | viability, T/C [19] 87.6% | viability, T/C [20] 98.8% | viability, T/C [21] 113% | viability, T/C [22] 104% | viability, T/C [23] 107% | viability, T/C [24] 89.3% | viability, T/C [25] 94.6% | viability, T/C [26] 106% | viability, T/C [27] 104% | viability, T/C [28] 97.8% | viability, T/C [29] 99.6% | viability, T/C [30] 104% | viability, T/C [31] 124% | viability, T/C [32] 122% | viability, T/C [33] 116% | viability, T/C [34] 123% | viability, T/C [35] 92.4% | viability, T/C [36] 90.4%

CC(Cn1ccc(-c2ccc(C#N)c(Cl)c2)n1)NC(=O)c1cc(C(C)O)[nH]n1 (stereo not given) + CC(Nc1ncnc2nc[nH]c12)c1cc2cccc(Cl)c2c(=O)n1-c1ccccc1
inactive: viability, T/C [1] 99.9% | viability, T/C [2] 75.6% | viability, T/C [3] 108% | viability, T/C [4] 104% | viability, T/C [5] 99.9% | viability, T/C [6] 89.3% | viability, T/C [7] 128% | viability, T/C [8] 105% | viability, T/C [9] 106% | viability, T/C [10] 95.3% | viability, T/C [11] 117% | viability, T/C [12] 127% | viability, T/C [13] 111% | viability, T/C [14] 86.3% | viability, T/C [15] 87% | viability, T/C [16] 89.3% | viability, T/C [17] 91% | viability, T/C [18] 91.6% | viability, T/C [19] 87.2% | viability, T/C [20] 97.8% | viability, T/C [21] 78.4% | viability, T/C [22] 88.9% | viability, T/C [23] 82.6% | viability, T/C [24] 106% | viability, T/C [25] 92.7% | viability, T/C [26] 94.1% | viability, T/C [27] 103% | viability, T/C [28] 89.6% | viability, T/C [29] 92.3% | viability, T/C [30] 85.3% | viability, T/C [31] 113% | viability, T/C [32] 104% | viability, T/C [33] 88.7% | viability, T/C [34] 111% | viability, T/C [35] 109% | viability, T/C [36] 108%
> 10 µM: IC50 (second compound 0.0316 µM) | IC50 (second compound 0.1 µM) | IC50 (second compound 0.316 µM) | IC50 (second compound 1 µM) | IC50 (second compound 3.16 µM) | IC50 (second compound 10 µM)

Cn1ncc(Cl)c1-c1cc(C(=O)NC(CN)Cc2cccc(F)c2)sc1Cl (stereo not given) + CC(Nc1ncnc2nc[nH]c12)c1cc2cccc(Cl)c2c(=O)n1-c1ccccc1
inactive: viability, T/C [1] 97.5% | viability, T/C [2] 89.3% | viability, T/C [3] 96.3% | viability, T/C [4] 91.5% | viability, T/C [5] 83.9% | viability, T/C [6] 59.2% | viability, T/C [7] 91.1% | viability, T/C [8] 93.3% | viability, T/C [9] 129% | viability, T/C [10] 91.7% | viability, T/C [11] 93.2% | viability, T/C [12] 59.8% | viability, T/C [13] 90.6% | viability, T/C [14] 122% | viability, T/C [15] 104% | viability, T/C [16] 105% | viability, T/C [17] 84.2% | viability, T/C [18] 65.5% | viability, T/C [19] 99% | viability, T/C [20] 115% | viability, T/C [21] 106% | viability, T/C [22] 98.1% | viability, T/C [23] 77.8% | viability, T/C [24] 73.3% | viability, T/C [25] 83.3% | viability, T/C [26] 103% | viability, T/C [27] 92.5% | viability, T/C [28] 71% | viability, T/C [29] 81.8% | viability, T/C [30] 61% | viability, T/C [31] 99.6% | viability, T/C [32] 99.6% | viability, T/C [33] 90.6% | viability, T/C [34] 94.2% | viability, T/C [35] 74.4% | viability, T/C [36] 70.1%
> 10 µM: IC50 (second compound 0.0316 µM) | IC50 (second compound 0.1 µM) | IC50 (second compound 0.316 µM) | IC50 (second compound 1 µM) | IC50 (second compound 3.16 µM) | IC50 (second compound 10 µM)

Cn1nccc1Nc1nccc(-c2ccn(C(CO)c3ccc(Cl)c(F)c3)c(=O)c2)n1 (stereo not given) + CC(Nc1ncnc2nc[nH]c12)c1cc2cccc(Cl)c2c(=O)n1-c1ccccc1
> 10 µM: IC50 (second compound 0.0316 µM) | IC50 (second compound 0.1 µM) | IC50 (second compound 0.316 µM) | IC50 (second compound 1 µM) | IC50 (second compound 3.16 µM) | IC50 (second compound 10 µM)
inactive: viability, T/C [1] 107% | viability, T/C [2] 91.4% | viability, T/C [3] 92% | viability, T/C [4] 115% | viability, T/C [5] 101% | viability, T/C [6] 78.5% | viability, T/C [7] 76.1% | viability, T/C [8] 86.5% | viability, T/C [9] 102% | viability, T/C [10] 120% | viability, T/C [11] 101% | viability, T/C [12] 72.7% | viability, T/C [13] 95.2% | viability, T/C [14] 85.6% | viability, T/C [15] 83.1% | viability, T/C [16] 98.7% | viability, T/C [17] 84.2% | viability, T/C [18] 71.1% | viability, T/C [19] 99.3% | viability, T/C [20] 100% | viability, T/C [21] 89.4% | viability, T/C [22] 103% | viability, T/C [23] 96.2% | viability, T/C [24] 75.7% | viability, T/C [25] 88.2% | viability, T/C [26] 80.8% | viability, T/C [27] 83.6% | viability, T/C [28] 125% | viability, T/C [29] 140% | viability, T/C [30] 68.4% | viability, T/C [31] 135% | viability, T/C [32] 115% | viability, T/C [33] 109% | viability, T/C [34] 110% | viability, T/C [35] 91.9% | viability, T/C [36] 70.5%

From PubChem BioAssay AID1963972 (Molecular Pharmacology Branch, DTP, NCI, 2024)
